What was measured:
[1] = tested on: patients with smoldering systemic, indolent systemic or cutaneous mastocytosis with handicap; assay: phase 3 study AB06006, masitinib versus placebo; type: in vivo, human
Excerpt: The trial lasted 24 weeks with possible extension. In accordance with protocol amendment version 7.0 (v7), the study population was amended to a more restricted subpopulation of mastocytosis. […] The trial lasted 24 weeks with possible extension. […] To be noted, for the purpose of efficacy analysis a patient was classified as severe if they suffered from at least one of the main handicaps constituting the primary endpoint: […] The criterion of “at least two of the following handicaps” including handicaps on stools and micturition, was relaxed to “at least one of the main handicaps” (i.e. pruritus, flushes, depression and fatigue). […] At each patient evaluation between weeks 8 and 24, each of the above four severe symptoms was evaluated. […] In this case, missing data was imputed as failure (missing=failure as primary analysis). • Case 2: discontinuation for a documented reason excluding toxicity or lack of efficacy. In this case, non-observed values can be considered as Missing At Random (MAR), and no imputation will be done (Observed Cases). • Replacement of missing value for patients present at the visit: If data was missing despite the patient being present at the visit, said missing data was not replaced. Secondary Analysis: […] (asthenia). • A second group comprised patients diagnosed as having severe indolent systemic mastocytosis, severe smoldering systemic mastocytosis, or severe cutaneous mastocytosis. […] This group provides comparative analysis for patient selection according to variant of mastocytosis (i.e. systemic versus cutaneous). • A third group comprised all randomized patients to study AB06006, corresponding therefore to the least restricted population, comprising patients with severe/non severe indolent and smoldering systemic mastocytosis, and severe/non severe cutaneous mastocytosis. This group provides comparative analysis based on patient selection according to severity of mast cell mediator release symptoms. […] ≥40. Diff=absolute difference in response rates between treatment-arms of a given population (masitinib arm minus placebo arm). Factor Diff=ratio of 'Diff' between compared populations showing relative superiority of response rate for severe systemic population over the comparator population. […] ****PF=patients with both pruritus and flushes handicap at baseline.

[2] = tested on: patients with indolent forms of mastocytosis with handicap; details: in vivo
[3] = tested on: patients with indolent forms of mastocytosis with handicap; assay: Example 1 phase 2a study, safety assessment
[4] = moderate baseline handicap, all patients
[5] = moderate baseline handicap, all patients (n = 110)
[6] = moderate baseline handicap, severe indolent/smoldering systemic
[7] = moderate baseline handicap, severe indolent/smoldering systemic (n = 67)
[8] = moderate baseline handicap, severe systemic vs all patients
[9] = severe baseline handicap, severe cutaneous/indolent/smoldering
[10] = severe baseline handicap, severe cutaneous/indolent/smoldering (n = 110)
[11] = severe baseline handicap, severe indolent/smoldering systemic
[12] = severe baseline handicap, severe indolent/smoldering systemic (n = 67)
[13] = severe baseline handicap, severe systemic vs severe cutaneous/indolent/smoldering

Cc1ccc(NC(=O)c2ccc(CN3CCN(C)CC3)cc2)cc1Nc1nc(-c2cccnc2)cs1 [masitinib, 4-(4-methylpiperazin-1-ylmethyl)-N-[4-methyl-3-(4-pyridin-3ylthiazol-2-ylamino)phenyl]benzamide]
2H[75%] Diff (masitinib arm minus placebo arm) [1, 4]: 2.9% | 3H[75%] Diff (masitinib arm minus placebo arm) [1, 4]: 2.3% | 4H[75%] Diff (masitinib arm minus placebo arm) [1, 4]: 0.4% | PF Diff (masitinib arm minus placebo arm) [1, 4]: 0.2% | 2H[75%] cumulative response [1, 5]: 23.3% | 3H[75%] cumulative response [1, 5]: 20.3% | 4H[75%] cumulative response [1, 5]: 16.3% | PF cumulative response [1, 5]: 26.9% | 2H[75%] Diff (masitinib arm minus placebo arm) [1, 6]: 12.2% | 3H[75%] Diff (masitinib arm minus placebo arm) [1, 6]: 12.8% | 4H[75%] Diff (masitinib arm minus placebo arm) [1, 6]: 10.1% | PF Diff (masitinib arm minus placebo arm) [1, 6]: 10.7% | 2H[75%] cumulative response [1, 7]: 28.2% | 3H[75%] cumulative response [1, 7]: 24.8% | 4H[75%] cumulative response [1, 7]: 19.6% | PF cumulative response [1, 7]: 28.7% | 2H[75%] Factor Diff [1, 8]: 4.2 | 3H[75%] Factor Diff [1, 8]: 5.6 | 4H[75%] Factor Diff [1, 8]: 25.3 | PF Factor Diff [1, 8]: 53.5 | 2H[75%] Diff (masitinib arm minus placebo arm) [1, 9]: 7.4% | 3H[75%] Diff (masitinib arm minus placebo arm) [1, 9]: 6.3% | 4H[75%] Diff (masitinib arm minus placebo arm) [1, 9]: 3.3% | PF Diff (masitinib arm minus placebo arm) [1, 9]: 6.9% | 2H[75%] cumulative response [1, 10]: 22.0% | 3H[75%] cumulative response [1, 10]: 20.0% | 4H[75%] cumulative response [1, 10]: 15.4% | PF cumulative response [1, 10]: 30.6% | 2H[75%] Diff (masitinib arm minus placebo arm) [1, 11]: 16.5% | 3H[75%] Diff (masitinib arm minus placebo arm) [1, 11]: 15.2% | 4H[75%] Diff (masitinib arm minus placebo arm) [1, 11]: 11.1% | PF Diff (masitinib arm minus placebo arm) [1, 11]: 17.8% | 2H[75%] cumulative response [1, 12]: 27.2% | 3H[75%] cumulative response [1, 12]: 24.9% | 4H[75%] cumulative response [1, 12]: 18.6% | PF cumulative response [1, 12]: 35.4% | 2H[75%] Factor Diff [1, 13]: 2.2 | 3H[75%] Factor Diff [1, 13]: 2.4 | 4H[75%] Factor Diff [1, 13]: 3.4 | PF Factor Diff [1, 13]: 2.6 | deaths during the study [2]: No deaths | Early study discontinuation: Adverse event ([3]; All (N = 25)): 12 N, % | incidence of skin rash ([3]; after W12): no incidence | At least one suspected AE ([3]; extension phase, All (N = 17)): 10 (58.8%) subjects (%) | suspected AE: Abdominal pain ([3]; extension phase, All (N = 17)): 1 (5.9%) subjects (%) | suspected AE: Aphthous stomatitis ([3]; extension phase, All (N = 17)): 1 (5.9%) subjects (%) | suspected AE: Arthralgia ([3]; extension phase, All (N = 17)): 1 (5.9%) subjects (%) | suspected AE: Blepharitis ([3]; extension phase, All (N = 17)): 1 (5.9%) subjects (%) | suspected AE: Cytolytic hepatitis ([3]; extension phase, All (N = 17)): 1 (5.9%) subjects (%) | suspected AE: Dermatitis psoriasiform ([3]; extension phase, All (N = 17)): 1 (5.9%) subjects (%) | suspected AE: Eczema ([3]; extension phase, All (N = 17)): 1 (5.9%) subjects (%) | suspected AE: Gamma-glutamyltransferase increased ([3]; extension phase, All (N = 17)): 1 (5.9%) subjects (%) | suspected AE: Gingivitis ([3]; extension phase, All (N = 17)): 1 (5.9%) subjects (%) | suspected AE: Muscle spasms ([3]; extension phase, All (N = 17)): 1 (5.9%) subjects (%) | suspected AE: Vomiting ([3]; extension phase, All (N = 17)): 1 (5.9%) subjects (%) | At least one suspected AE ([3]; extension phase, Mild): 6 (35.3%) subjects (%) | suspected AE: Arthralgia ([3]; extension phase, Mild): 1 (5.9%) subjects (%) | suspected AE: Blepharitis ([3]; extension phase, Mild): 1 (5.9%) subjects (%) | suspected AE: Dermatitis psoriasiform ([3]; extension phase, Mild): 1 (5.9%) subjects (%) | suspected AE: Edema—all categories ([3]; extension phase, Mild): 1 (5.9%) subjects (%) | suspected AE: Gamma-glutamyltransferase increased ([3]; extension phase, Mild): 1 (5.9%) subjects (%) | suspected AE: Gingivitis ([3]; extension phase, Mild): 1 (5.9%) subjects (%) | suspected AE: Nausea ([3]; extension phase, Mild): 2 (11.8%) subjects (%) | suspected AE: Nausea/Vomiting ([3]; extension phase, Mild): 2 (11.8%) subjects (%) | At least one suspected AE ([3]; extension phase, Moderate): 5 (29.4%) subjects (%) | suspected AE: Abdominal pain ([3]; extension phase, Moderate): 1 (5.9%) subjects (%) | suspected AE: Cytolytic hepatitis ([3]; extension phase, Moderate): 1 (5.9%) subjects (%) | suspected AE: Eczema ([3]; extension phase, Moderate): 1 (5.9%) subjects (%) | suspected AE: Muscle spasms ([3]; extension phase, Moderate): 1 (5.9%) subjects (%) | suspected AE: Nausea/Vomiting ([3]; extension phase, Moderate): 1 (5.9%) subjects (%) | suspected AE: Vomiting ([3]; extension phase, Moderate): 1 (5.9%) subjects (%) | At least one suspected AE ([3]; extension phase, Severe): 1 (5.9%) subjects (%) | suspected AE: Aphthous stomatitis ([3]; extension phase, Severe): 1 (5.9%) subjects (%) | At least one suspected AE ([3]; initial phase, Mild): 11 (44.0%) subjects (%) | suspected AE: Abdominal pain ([3]; initial phase, Mild): 2 (8.0%) subjects (%) | suspected AE: Diarrhea ([3]; initial phase, Mild): 1 (4.0%) subjects (%) | suspected AE: Edema - all categories ([3]; initial phase, Mild): 3 (12.0%) subjects (%) | suspected AE: Muscle spasms ([3]; initial phase, Mild): 1 (4.0%) subjects (%) | suspected AE: Nausea ([3]; initial phase, Mild): 5 (20.0%) subjects (%) | suspected AE: Nausea/Vomiting ([3]; initial phase, Mild): 6 (24.0%) subjects (%) | suspected AE: Vomiting ([3]; initial phase, Mild): 1 (4.0%) subjects (%) | At least one suspected AE ([3]; initial phase, Moderate): 19 (76.0%) subjects (%) | suspected AE: Abdominal pain ([3]; initial phase, Moderate): 3 (12.0%) subjects (%) | suspected AE: Asthaenia ([3]; initial phase, Moderate): 4 (16.0%) subjects (%) | suspected AE: Diarrhea ([3]; initial phase, Moderate): 2 (8.0%) subjects (%) | suspected AE: Dyspnoea ([3]; initial phase, Moderate): 3 (12.0%) subjects (%) | suspected AE: Edema - all categories ([3]; initial phase, Moderate): 8 (32.0%) subjects (%) | suspected AE: Eructation ([3]; initial phase, Moderate): 2 (8.0%) subjects (%) | suspected AE: Headache ([3]; initial phase, Moderate): 5 (20.0%) subjects (%) | suspected AE: Muscle spasms ([3]; initial phase, Moderate): 7 (28.0%) subjects (%) | suspected AE: Nausea ([3]; initial phase, Moderate): 7 (28.0%) subjects (%) | suspected AE: Nausea/Vomiting ([3]; initial phase, Moderate): 8 (32.0%) subjects (%) | suspected AE: Rash - all categories ([3]; initial phase, Moderate): 6 (24.0%) subjects (%) | suspected AE: Vomiting ([3]; initial phase, Moderate): 4 (16.0%) subjects (%) | At least one suspected AE ([3]; initial phase, Severe): 9 (36.0%) subjects (%) | suspected AE: Asthaenia ([3]; initial phase, Severe): 3 (12.0%) subjects (%) | suspected AE: Diarrhea ([3]; initial phase, Severe): 1 (4.0%) subjects (%) | suspected AE: Edema - all categories ([3]; initial phase, Severe): 2 (8.0%) subjects (%) | suspected AE: Eructation ([3]; initial phase, Severe): 1 (4.0%) subjects (%) | suspected AE: Muscle spasms ([3]; initial phase, Severe): 1 (4.0%) subjects (%) | suspected AE: Nausea ([3]; initial phase, Severe): 1 (4.0%) subjects (%) | suspected AE: Nausea/Vomiting ([3]; initial phase, Severe): 1 (4.0%) subjects (%) | suspected AE: Rash - all categories ([3]; initial phase, Severe): 2 (8.0%) subjects (%) | treatment-related SAEs ([3]; one patient, two episodes of agranulocytosis at 3 mg/kg/day): Two | patients who withdrew due to occurrence of AEs ([3]; prior to W12, 2/25 patients): 8%
